Data published in patent publication US5753614A, “Nisin compositions for use as enhanced, broad range bactericides” (AMBI Inc., priority 1995, dated 1998).

Experiments:
Listeria monocytogenes [1] = test: Bactericidal activity towards Listeria monocytogenes in milk; assay type: cell-based; details: for % Survival 2 hr: L. monocytogenes in milk
Method: (§1) All tests in the following examples were performed at 37° C. The efficacy of the enhanced broad range bactericides was determined by assaying bactericidal activity as measured by the percent bacterial survival after treatment with the bactericide. Generally, after incubation of a 10^7 cell per ml suspension of target species with the novel bactericide for specified lengths of time, bacteria were collected by centrifugation for 2 minutes. The bacterial pellet was washed free of the bactericide with a rescue buffer, termed herein Phage buffer (50 mM Tris-HCl buffer pH 7.8, 1 mM MgSO4, 4 mM CaCl2, 0.1M Nacl, and 0.1% gelatin), resuspended and serially diluted into Phage buffer, and 100 μl of the suspended bacteria were spread on nutrient agar plates. Surviving bacteria were determined by scoring colony forming units (CFU) after incubation for 24-48 hours at 37° C.
An example of where the application of nisin is limited by its available activity is illustrated by the data in Table 15B.
(§2) Incubations were in milk at 37° C.

S. typhimurium = test: Bactericidal activity, percent survival of S. typhimurium suspension; assay type: cell-based, Salmonella typhimurium; details: for % Survival at 2 hours: S. typhimurium
Method: as §1
The control (Test #1) is identical to the control of Example 1 (Table 1).

E. coli = test: Bactericidal activity, percent survival of E. coli at 2 hours; assay type: cell-based, Escherichia coli; details: for Percentage E. coli Survival at 2 hours: Tris pH 8.0
Method: as §1
The effects of the bactericide were measured as a function of percentage bacteria survival after 2 hours.

K. pneumoniae = test: Bactericidal activity, percent survival of K. pneumoniae; assay type: cell-based, Klebsiella pneumoniae
Method: as §1
The effect was measured as a function of percentage bacterial survival after 2 hours.

[2] = test system: S. typhimurium on chicken muscle; test: Bactericidal activity towards S. typhimurium on chicken muscle (unadhered cells); assay type: cell-based, Salmonella typhimurium
Method: Incubations were performed in either 50 mM sodium acetate, pH 5.0, or 20 mM Tris, pH 8.0 at 37° C.
Cubes of chicken muscle were cleansed with sodium hypochlorite and povidone iodine prior to use. To inoculate the tissue, the cubes of chicken muscle were dipped into a 10^8 cells/ml suspension of S. typhimurium in 20 mM Tris HCl, pH 8.0. Excess moisture was removed from dipped cubes by tapping. The chicken samples were placed into sufficient buffer containing the nisin composition to cover the tissue and incubated for 2 hours at 37° C. after which the tissue was removed to sufficient Phage buffer to cover the tissue. The bacteria remaining in the test solution were collected by centrifugation, washed with Phage buffer, and combined with bacteria washed from the tissue by Phage buffer. The combined samples (termed "unadhered" cells) were serially diluted and 100 μl aliquots were plated for determination of surviving bacteria.
(§3) Cubes of chicken muscle were cleansed with sodium hypochlorite and povidone iodine prior to use. To inoculate the tissue, the cubes of chicken muscle were dipped into a 10^8 cells/ml suspension of S. typhimurium in 20 mM Tris HCl, pH 8.0. Excess moisture was removed from dipped cubes by tapping. The tissue was placed into sufficient buffer containing the nisin compositions to cover the tissue, and incubated for 2 hours at 37° C. after which the tissue was removed to sufficient Phage buffer to cover the tissue. The bacteria remaining in the test solution were collected by centrifugation, washed with Phage buffer, and combined with bacteria washed from the tissue by Phage buffer. The combined samples (termed "unadhered" cells) were serially diluted and 100 μl aliquots were plated for determination of surviving bacteria.
as §3, with “cleaned” for “cleansed”, “50” for “20”, “sodium acetate buffer,” for “Tris HCl,”, “5.0.” for “8.0.”, “containing” for “containing the”

Staphylococcus aureus = test: Bactericidal activity towards Staphylococcus aureus, influence of pH and EDTA; assay type: cell-based; details: S. aureus
Method: as §1
Incubations were performed in 50 mM sodium acetate buffer, pH 5.0 or 20 m
TrisHCl buffer, pH 8.0 at 37° C.

Streptococcus mutans [3] = test: Bactericidal activity towards Streptococcus mutans at 2 hr; assay type: cell-based; details: S. mutans; nisin 0.1 μg/ml, EDTA 0; 20 mM TrisHCl pH 8.0
Method: as §1
(§4) Incubations were performed in 20 mM TrisHCl, pH 8.0 at 37° C.

Listeria monocytogenes [4] = test: Bactericidal activity towards Listeria monocytogenes in Tris buffer; assay type: cell-based; details: L. monocytogenes
Method: as §1, §4

Coryneform bacteria = test: Bactericidal activity towards Coryneform bacteria; assay type: cell-based, mixed population of axillary Coryneform bacteria
Method: as §1, §4

Streptococcus agalactiae = test: Bactericidal activity towards Streptococcus agalactiae in milk; assay type: cell-based; details: S. agalactiae in milk
Method: as §1
However, the combination of the two agents, 0.1% monolaurin and nisin 0.2 μg/ml, is extremely potent towards S. agalactiae. […] Thus, when the application of nisin is limited by its available activity, a bactericide comprising nisin with a surfactant can be expected to be more useful.
as §2

Streptococcus mutans [5] = test: Kinetics of bactericidal activity towards Streptococcus mutans; assay type: cell-based; details: S. mutans, nisin 0 with 1.0 mM EDTA, pH 7.3
Method: The suspensions were incubated for various times ranging from 0.5 to 60 minutes with the bactericides. The bactericidal efficacy of the bactericides was estimated by determining the percent survival of bacteria.
Incubations were performed in 20 mM TrisHCl, pH 7.3 at 37° C.

Escherichia coli = test: Rapid bactericidal activity towards Escherichia coli (1 min); assay type: cell-based; details: E. coli; EDTA 1.0 mM, nisin 0; 20 mM Tris pH 7.0
Method: as §1
Incubations were performed in 20 mM Tris, pH 7.0 at 37° C.

[6] = nisin 3.0 μg/ml, EDTA 0, pH 8.0

## monooleate
Listeria monocytogenes [1]; monooleate 0.1%, nisin 0
  % Survival 2 hr: 67%
Listeria monocytogenes [1]; monooleate 1.0%, nisin 0
  % Survival 2 hr: 63%
Listeria monocytogenes [1]; monooleate by itself, in milk
  bactericidal activity towards L. monocytogenes (in words): no bactericidal activity

## Nisin
S. typhimurium; nisin 10 ug/ml, EDTA 0, BSA 0 (Table 8)
  % Survival at 2 hours: 51.3%
S. typhimurium; nisin 100 ug/ml, EDTA 0, BSA 0 (Table 8)
  % Survival at 2 hours: 1.6%
S. typhimurium; nisin 100 μg/ml, EDTA 0, pH 5.0
  % Survival at 2 hours: 0.6%
S. typhimurium; nisin 100 μg/ml, EDTA 0, pH 8.0 (Table 6)
  % Survival at 2 hours: 4%
S. typhimurium; nisin 50 μg/ml, EDTA 0, 20 mM Tris pH 8.0
  Percentage S. typhimurium Survival at 3 hours: 7.0%
S. typhimurium; nisin 100 μg/ml, EDTA 0, 20 mM Tris pH 8.0
  Percentage S. typhimurium Survival at 3 hours: 1.6%
E. coli; nisin 100 μg/ml, EDTA 0, Triton X-100 0
  Percentage E. coli Survival at 2 hours: 25%
E. coli; nisin 300 μg/ml, EDTA 0, Triton X-100 0
  Percentage E. coli Survival at 2 hours: 8.5%
K. pneumoniae; nisin 100 μg/ml, EDTA 0, 20 mM Tris pH 8.0, 37°C
  % Survival at 2 hours: 50%
K. pneumoniae; nisin 300 μg/ml, EDTA 0, Tris pH 8.0
  % Survival at 2 hours: 38%
[2]; nisin 300 ug/ml, 1% BSA, EDTA 0, pH 8.0
  % Survival at 2 hours (Unadhered cells): 0.02%
[2]; nisin 300 ug/ml, EDTA 0, pH 5.0
  % Survival at 2 hours (Unadhered cells): 0.1%
[2]; nisin 300 ug/ml, EDTA 0, pH 8.0
  % Survival at 2 hours (Unadhered cells): 7.5%
Staphylococcus aureus; nisin 3.0 μg/ml, EDTA 0, pH 5.0
  % Survival 2 hr: 0.6%
Staphylococcus aureus; [6]
  % Survival 2 hr: 7.4%
Streptococcus mutans [3]
  % Survival after 2 hr: 4.3%
Listeria monocytogenes [4]; [6]
  % Survival after 2 hr: 0.71%
Coryneform bacteria; nisin 3 ug/ml, EDTA 0, pH 8.0
  % Survival 2 hr: 0.22%
Streptococcus agalactiae; nisin 0.02 μg/ml, monolaurin 0
  % survival at 2 h: 100%
Streptococcus agalactiae; nisin 0.2 μg/ml, monolaurin 0
  % survival at 2 h: 2.2%
Listeria monocytogenes [1]; nisin 100 μg/ml, monooleate 0
  % Survival 2 hr: 0.56%

## CCCCCCCCCCCC(=O)OCC(O)CO (stereo not shown) [Monolaurin, monolaurin]
Streptococcus agalactiae; monolaurin 0.01%, nisin 0
  % survival at 2 h: 100%
Streptococcus agalactiae; monolaurin 0.1%, nisin 0
  % survival at 2 h: 4.5%

## O=C([O-])CN(CCN(CC(=O)[O-])CC(=O)O)CC(=O)O.[Na+].[Na+] [EDTA]
S. typhimurium; EDTA 20 mM, nisin 0, 20 mM Tris pH 8.0
  Percentage S. typhimurium Survival at 3 hours: 2.5%
S. typhimurium; EDTA 1.0 mM, BSA 1.0%, nisin 0, 20 mM Tris pH 8.0
  % Survival at 2 hours: 63%
S. typhimurium; EDTA 2.0 mM, nisin 0, 20 mM Tris pH 8.0
  % Survival at 2 hours: 8.7%
S. typhimurium; EDTA 2.0 mM, nisin 0, 50 mM sodium acetate pH 5.0
  % Survival at 2 hours: 38.7%
S. typhimurium; EDTA 10 mM, nisin 0, pH 5.0
  % Survival at 2 hours: 15.2%
S. typhimurium; EDTA 10 mM, nisin 0, pH 8.0
  % Survival at 2 hours: 14%
S. typhimurium; EDTA 50 mM, nisin 0, pH 5.0
  % Survival at 2 hours: 3.5%
S. typhimurium; EDTA 50 mM, nisin 0, pH 8.0
  % Survival at 2 hours: 11.4%
S. typhimurium; EDTA 100 mM, nisin 0, pH 8.0
  % Survival at 2 hours: 45%
E. coli; EDTA 20 mM, nisin 0
  Percentage E. coli Survival at 2 hours: 14.5%
K. pneumoniae; EDTA 20 mM, nisin 0, Tris pH 8.0
  % Survival at 2 hours: 22%
[2]; EDTA 1.0 mM, BSA 1.0%, nisin 0, pH 8.0
  % Survival at 2 hours: 27%
[2]; EDTA 10 mM, nisin 0, methyl paraben 0, 50 mM Na acetate pH 5.0 (Table 10)
  % Survival at 2 hours (Unadhered cells): 11.8%
[2]; EDTA 10 mM, nisin 0, pH 5.0 (Table 7)
  % Survival at 2 hours (Unadhered cells): 6.4%
[2]; EDTA 10 mM, nisin 0, pH 8.0
  % Survival at 2 hours (Unadhered cells): 5.2%
Staphylococcus aureus; EDTA 0.3 mM, nisin 0, pH 8.0
  % Survival 2 hr: 100%
Staphylococcus aureus; EDTA 1.0 mM, nisin 0, pH 8.0
  % Survival 2 hr: 81%
Staphylococcus aureus; EDTA 3.0 mM, nisin 0, pH 5.0
  % Survival 2 hr: 100%
Staphylococcus aureus; EDTA 3.0 mM, nisin 0, pH 8.0
  % Survival 2 hr: 100%
Staphylococcus aureus; EDTA 10 mM, nisin 0, pH 8.0
  % Survival 2 hr: 100%
Staphylococcus aureus; EDTA 30 mM, nisin 0, pH 8.0
  % Survival 2 hr: 100%
Listeria monocytogenes [4]; EDTA 1.0 mM, nisin 0, 20 mM TrisHCl pH 8.0
  % Survival after 2 hr: 84%
Coryneform bacteria; EDTA 0.3 mM, nisin 0, 20 mM TrisHCl pH 8.0
  % Survival 2 hr: 4.6%
Coryneform bacteria; EDTA 1.0 mM, nisin 0, pH 8.0
  % Survival 2 hr: 3.6%
Coryneform bacteria; EDTA 3.0 mM, nisin 0, pH 8.0
  % Survival 2 hr: 8%
Coryneform bacteria; EDTA 10 mM, nisin 0, pH 8.0
  % Survival 2 hr: 36%
Streptococcus mutans [5]; 3 min
  % Survival: 100%
Streptococcus mutans [5]; 60 min
  % Survival: 100%
Escherichia coli
  % survival at 1 min: 100%

## Triton X-100
S. typhimurium; Triton X-100 1.0%, nisin 0, EDTA 0, Tris pH 8.0
  Percentage S. typhimurium Survival at 3 hours: 37.4%
E. coli; Triton X-100 1.0%, nisin 0, EDTA 0
  Percentage E. coli Survival at 2 hours: 100%
E. coli; Triton X-100 1.0%, tests #3 and #4
  bactericidal activity towards E. coli (in words): no significant bactericidal activity
